Legend:
adjuvant polyarthritis = test: Adjuvant polyarthritis in polyarthritic injected rats (hind feet weight); assay type: in vivo, rat (male Lewis); settings: for ED50: oral once daily for 5 days (Days 9-13), hind feet weighed Day 15, 21600 min
Procedure: The object of this study was to compare the anti-inflammatory activity of the micronized and unmicronized samples when administered orally to polyarthritic injected rats.
This anti-inflammatory study was conducted according to the method described by Chang, Y., Pearson, C.M. and Abe, C. in Arthritis and Rheumatism, Volume 23: pp. 62-71 (1980).
Male Lewis rats weighing 200 to 220 grams were divided into groups of 5 and housed in hanging cages with food and water ad libitum. On Day Zero they were injected with 7.5 mg of N,N-dioctadecyl-N',N'bis(2-hydroxyethyl)propane diamine suspended in mineral oil subcutaneously at the base of the tail. On Day 9 the animals were weighed and compound administration was begun. The micronized and unmicronized samples described in Example 1, Steps A and B, were suspended in solution using a tissue homogenizer in 1% carboxy methyl cellulose. These compounds were administered orally once daily for 5 days (Days 9-13) with no dosing on day 14. On Day 15, the hind feet were removed just above the ankle joint and weighed, and percent difference from the diseased control was calculated.

hind paw edema = test: Anti-inflammatory activity: hind paw edema in adjuvant (Mycobacterium butyricum) arthritis rats; assay type: in vivo, rat (female Lewis); settings: 1 mg/kg per day, dosed once daily for 4 days, paw volumes measured on fifth day
Procedure: The effectiveness of the micronized sample as an anti-inflammatory agent and its comparison to the pulverized form was evaluated.
This study is a modification of the method described by Wong, et al in the Journal of Pharmacology and Experimental Therapeutics, Vol. 185: No. 1, pages 127-138 (1973).
The left and right rear paws of female Lewis rats (Charles River Laboratories) weighing 160-180 grams each were measured by mercury displacement prior to injection (Day Zero).
Adjuvant arthritis was induced in this rat colony by subcutaneous injection of Mycobacterium butyricum (0.75 mg in 0.1 ml light mineral oil, Fisher) using an automated Cornwall syringe. On days 11-15 post-adjuvant, the injected animals with 0.25 to 0.76 ml paw edema were selected and distributed evenly, according to edema size, into control and experimental groups of ten rats each. Vehicle control and drug treatments were assigned to the groups at random. […] All animals were dosed once daily for 4 days and on the fifth day both hind paw volumes were again measured using mercury displacement.
The hind paw edema was determined for each rat by subtracting the hind paw volume measured on Day Zero from the hind paw volume measured on the fifth day of the study. Group means were determined and the drug effect was calculated as percent inhibition of the hind paw edema according to the following equation: […]

acetylcholine writhing = test: mouse acetylcholine writhing test (analgesic activity); assay type: in vivo, mouse (CD-1); settings: 1 mg/kg oral, 4 hours before intraperitoneal acetylcholine; writhes counted for 10 minutes
Procedure: This study was performed to evaluate and compare the analgesic effectiveness of the micronized and pulverized samples described in Example 1, Step A and Example 1, Step B. Analgesic activity was evaluated via the mouse acetylcholine writhing test using a modification of the procedure described by Collier et al in Nature (New Biol.), Volume 204: page 1316 (1964) and the British Journal of Pharmacology, Chemotherapy, Volume 32: page 295 (1968).
The test groups consisted of ten mile CD-1 mice (Charles River Laboratories) weighing 18-28 grams each. Test compounds suspended in 0.25% methylcellulose solution were administered orally by gavage and four hours later the mice were injected intraperitoneally with acetylcholine (0.55 mg/ml in 0.25% methyl cellulose). The number of writhes in each group of mice were counted for 10 minutes immediately following the injection of acetylcholine and percent inhibition was calculated as follows: […]

## CN1OCCC(=Cc2cc(C(C)(C)C)c(O)c(C(C)(C)C)c2)C1=O [Example 1, Step A, dihydro-4-(3,5-di-tert-butyl-4-hydroxy-benzylidene)-2-methyl-2H-1,2-oxazin-3(4H)-one]
Adjuvant polyarthritis
  ED50: 2.8 mg/kg
Adjuvant polyarthritis; ratio of ED50, adjuvant polyarthritis
  increase in potency of micronized compared to unmicronized sample: almost six fold increase in potency
Hind paw edema; listed as Example 1, Step B micronized
  % Inhibition (hind paw edema): 35%
Acetylcholine writhing
  % Inhibition (acetylcholine writhing assay): 100%

## CN1OCCC(=Cc2cc(C(C)(C)C)c(O)c(C(C)(C)C)c2)C1=O [Example 1, Step B, dihydro-4-(3,5-di-tert-butyl-4-hydroxy-benzylidene)-2-methyl-2H-1,2-oxazin-3(4H)-one]
Adjuvant polyarthritis
  ED50: 16.2 mg/kg
Hind paw edema
  % Inhibition (hind paw edema): 20%
Acetylcholine writhing
  % Inhibition (acetylcholine writhing assay): 63%

## CN1OCCC(=Cc2cc(C(C)(C)C)c(O)c(C(C)(C)C)c2)C1=O [active ingredient, dihydro-4-(3,5-di-tert-butyl-4-hydroxybenzylidene)-2-methyl-2H-1,2-oxazin-3(4H)-one]
Adjuvant polyarthritis; general statement, test not named
  degree of increase in anti-inflammatory effectiveness attributable to micronization vs unmicronized product: at least six fold

From patent US5271944A, “Pharmacologically enhanced formulations” (Biofor, Ltd., priority 1991, dated 1993)
